Data from article PMC4568520, “Interrogation of the intersubunit interface of the open Hv1 proton channel with a probe of allosteric coupling” (Scientific Reports, 2015).
Positions count from the first letter of the chain named.

Columns and labels:
[1] = target: T1, human Hv1 (wild type, dimeric) (Homo sapiens, UniProt Q96D96); assay: inside-out patch clamp, proton current inhibition, Hill fit; format: biochemical; details: wild-type dimer; open-channel block at +120 mV; pHi = pHo = 6.0; 22 °C; inhibitor on intracellular side
T1 construct: gene HVCN1; full-length human Hv1 homodimer, 273 residues; pGEMHE cRNA in Xenopus laevis oocytes, inside-out patches
T1 sequence (Q96D96 1-273): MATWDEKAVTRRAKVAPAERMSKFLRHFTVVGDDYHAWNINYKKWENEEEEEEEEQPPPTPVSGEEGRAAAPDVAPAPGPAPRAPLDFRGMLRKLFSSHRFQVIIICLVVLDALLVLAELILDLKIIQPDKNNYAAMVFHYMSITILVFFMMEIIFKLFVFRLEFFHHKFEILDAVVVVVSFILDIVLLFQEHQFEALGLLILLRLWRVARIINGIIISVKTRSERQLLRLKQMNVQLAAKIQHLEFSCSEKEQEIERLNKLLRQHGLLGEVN

[2] = target: T1, human Hv1 (wild type, dimeric); assay: cell-based; set-up: species or system Xenopus oocytes; patch-clamp proton currents, Hill fit of current inhibition, +120 mV, pHi = pHo = 6.0; details: apparent Kd, Hill fit of current inhibition; read-out: Kd (µM) (±SE)
Source text: Figure 1 Hv1 inhibition by guanidinothiazole derivatives. […] [2] 2-guanidino-benzothiazole (GBTA), [3] (5-trifluoromethyl-1,3-benzothiazol-2-yl)guanidine, [4] naphtho[1,2-d][1,3]thiazol-2-yl-guanidine, [5] (4-methyl-1,3-thiazol-2-yl)guanidine, [6] […] 1-[4-(4-chlorophenyl)-1,3-thiazol-2-yl]guanidine, [12] 1-[4-(3,4-dimethoxyphenyl)-1,3-thiazol-2-yl]guanidine. (b) Inhibition of human Hv1 activity by the indicated guanidinothiazoles and reference compound 2GBI (teal column). Hv1 proton currents were measured in inside out patches from Xenopus oocytes in response to depolarizations to +120 mV from a holding potential of −80 mV. Each inhibitor was added to the bath solution at a concentration of 200 μM. pHi = pHo = 6.0. Data are means ± S.E.M. (n ≥ 4). (c) Concentration dependences of inhibition of human Hv1 by compounds [2], [3], [6], and [11]. […] Apparent dissociation constants (Kd) for the different combinations of channel and inhibitor (Supplementary Table 1) were determined by fitting the concentration dependences of inhibition (average %inhib values) with the Hill equation: Figure 6 Open-state coupling is mediated by direct physical interaction between outer ends of S1 segments in the two subunits. […] Hill coefficients in inset histograms were determined from fits reported in Supplementary Figs 3 and 4. […]

D112E I127C+βME = target: T2, D112E I127C+βME (Homo sapiens, UniProt Q96D96, D112E/I127C); assay: cell-based; set-up: species or system Xenopus oocytes; patch-clamp proton currents, Hill fit of current inhibition, +120 mV, pHi = pHo = 6.0; details: read-out: Kd (µM) (±SE)
T2 construct: gene HVCN1; Hv1 homodimer, cysteines reduced by 10 mM βME
T2 sequence (Q96D96 1-273 D112E/I127C): T1 sequence (Q96D96 1-273) with D112E, I127C
Procedure: (§1) [2] 2-guanidino-benzothiazole (GBTA), [3] (5-trifluoromethyl-1,3-benzothiazol-2-yl)guanidine, [4] naphtho[1,2-d][1,3]thiazol-2-yl-guanidine, [5] (4-methyl-1,3-thiazol-2-yl)guanidine, [6] […] 1-[4-(4-chlorophenyl)-1,3-thiazol-2-yl]guanidine, [12] 1-[4-(3,4-dimethoxyphenyl)-1,3-thiazol-2-yl]guanidine. […] Hv1 proton currents were measured in inside out patches from Xenopus oocytes in response to depolarizations to +120 mV from a holding potential of −80 mV. Each inhibitor was added to the bath solution at a concentration of 200 μM. pHi = pHo = 6.0. Data are means ± S.E.M. (n ≥ 4). […] (a) Schematics of mutant Hv1 dimers and linked dimers designed to study how intersubunit cysteine crosslinking affects GBTA binding cooperativity. […] Hill coefficients in inset histograms were determined from fits reported in Supplementary Figs 3 and 4.

I127C+βME = target: T3, I127C+βME (Homo sapiens, UniProt Q96D96, I127C); assay: cell-based; set-up: species or system Xenopus oocytes; patch-clamp proton currents, Hill fit of current inhibition, +120 mV, pHi = pHo = 6.0; details: read-out: Kd (µM) (±SE)
T3 construct: gene HVCN1; Hv1 homodimer, cysteines reduced by 10 mM βME
T3 sequence (Q96D96 1-273 I127C): T1 sequence (Q96D96 1-273) with I127C
Procedure: as §1

[3] = target: T4, human Hv1 (wild type, dimeric) D123R (Homo sapiens, UniProt Q96D96, D123R); assay: cell-based; set-up: species or system Xenopus oocytes; patch-clamp proton currents, Hill fit of current inhibition, +120 mV, pHi = pHo = 6.0; details: apparent Kd, Hill fit of current inhibition; read-out: Kd (µM) (±SE)
T4 construct: gene HVCN1; full-length human Hv1 homodimer, 273 residues; pGEMHE cRNA in Xenopus laevis oocytes, inside-out patches
T4 sequence (Q96D96 1-273 D123R): T1 sequence (Q96D96 1-273) with D123R
Procedure: as §1

[4] = target: T5, human Hv1 (wild type, dimeric) E119A (Homo sapiens, UniProt Q96D96, E119A); assay: cell-based; set-up: species or system Xenopus oocytes; patch-clamp proton currents, Hill fit of current inhibition, +120 mV, pHi = pHo = 6.0; details: apparent Kd, Hill fit of current inhibition; read-out: Kd (µM) (±SE)
T5 construct: gene HVCN1; full-length human Hv1 homodimer, 273 residues; pGEMHE cRNA in Xenopus laevis oocytes, inside-out patches
T5 sequence (Q96D96 1-273 E119A): T1 sequence (Q96D96 1-273) with E119A
Procedure: as §1

[5] = target: T6, human Hv1 (wild type, dimeric) K125A (Homo sapiens, UniProt Q96D96, K125A); assay: cell-based; set-up: species or system Xenopus oocytes; patch-clamp proton currents, Hill fit of current inhibition, +120 mV, pHi = pHo = 6.0; details: apparent Kd, Hill fit of current inhibition; read-out: Kd (µM) (±SE)
T6 construct: gene HVCN1; full-length human Hv1 homodimer, 273 residues; pGEMHE cRNA in Xenopus laevis oocytes, inside-out patches
T6 sequence (Q96D96 1-273 K125A): T1 sequence (Q96D96 1-273) with K125A
Procedure: as §1

| Compound | apparent Kd [1] | Kd [2] [µM] | Kd (D112E I127C+βME) [µM] | Kd (I127C+βME) [µM] | Kd [3] [µM] | Kd [4] [µM] | Kd [5] [µM] |
| --- | --- | --- | --- | --- | --- | --- | --- |
| NC(N)=Nc1nc2ccccc2[nH]1 [compound 1, 2-Guanidino-benzimidazole] | inhibition of dimeric and monomeric Hv1 by compounds 2GBI and GBTA |  |  |  |  |  |  |
| N=C(N)Nc1nc2ccccc2s1 [compound 2, 2-guanidino-benzothiazole] |  | 90 ± 7 | 191 ± 11 | 44.3 ± 2.5 | 35.8 ± 2.4 | 40.5 ± 2.9 | 86 ± 6 |
